PMC7044277 (Nature Communications, 2020)
Where “and” joins values, the source holds several entries; their conditions need not be identical. Identical values can stand only once.

Assays:
Format in all cases: cell-based
320 non-olfactory GPCRs [1] = biological target: T1, 320 non-olfactory GPCRs (Homo sapiens, UniProt O15552)
T1 construct: expressed in transfected cells; host or cells: HTLA cells

320 non-olfactory GPCRs [2] = biological target: T2, 320 non-olfactory GPCRs (Homo sapiens, UniProt P47871)
T2 construct: expressed in transfected cells; host or cells: HTLA cells

320 non-olfactory GPCRs [3] = biological target: T3, 320 non-olfactory GPCRs (Homo sapiens, UniProt Q96RI0)
T3 construct: expressed in transfected cells; host or cells: HTLA cells

320 non-olfactory GPCRs [4] = biological target: T4, 320 non-olfactory GPCRs (Homo sapiens, UniProt Q99788)
T4 construct: expressed in transfected cells; host or cells: HTLA cells
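Further: compound tested at 1 µM final concentration.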

T1 sequence (O15552 whole entry): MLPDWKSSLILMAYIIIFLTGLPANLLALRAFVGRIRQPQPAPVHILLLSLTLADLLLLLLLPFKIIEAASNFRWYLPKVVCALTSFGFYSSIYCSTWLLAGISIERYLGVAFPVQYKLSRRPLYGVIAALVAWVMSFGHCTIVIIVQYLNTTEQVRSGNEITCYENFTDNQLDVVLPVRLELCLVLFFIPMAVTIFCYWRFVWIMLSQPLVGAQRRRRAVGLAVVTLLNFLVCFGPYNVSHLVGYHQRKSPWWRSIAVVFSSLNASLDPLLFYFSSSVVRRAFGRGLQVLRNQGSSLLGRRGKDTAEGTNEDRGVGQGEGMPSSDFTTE
T4 sequence (Q99788 whole entry): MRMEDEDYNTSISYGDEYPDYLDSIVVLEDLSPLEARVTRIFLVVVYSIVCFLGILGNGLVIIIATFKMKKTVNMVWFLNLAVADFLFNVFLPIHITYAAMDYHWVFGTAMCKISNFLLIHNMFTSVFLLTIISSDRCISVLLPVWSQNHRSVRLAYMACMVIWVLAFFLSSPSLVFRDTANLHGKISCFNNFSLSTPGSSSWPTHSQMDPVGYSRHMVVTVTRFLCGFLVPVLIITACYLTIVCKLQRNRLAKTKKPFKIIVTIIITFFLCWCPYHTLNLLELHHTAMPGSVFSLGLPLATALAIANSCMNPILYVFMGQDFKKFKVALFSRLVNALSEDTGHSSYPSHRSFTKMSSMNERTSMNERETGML
T3 sequence (Q96RI0 18-385): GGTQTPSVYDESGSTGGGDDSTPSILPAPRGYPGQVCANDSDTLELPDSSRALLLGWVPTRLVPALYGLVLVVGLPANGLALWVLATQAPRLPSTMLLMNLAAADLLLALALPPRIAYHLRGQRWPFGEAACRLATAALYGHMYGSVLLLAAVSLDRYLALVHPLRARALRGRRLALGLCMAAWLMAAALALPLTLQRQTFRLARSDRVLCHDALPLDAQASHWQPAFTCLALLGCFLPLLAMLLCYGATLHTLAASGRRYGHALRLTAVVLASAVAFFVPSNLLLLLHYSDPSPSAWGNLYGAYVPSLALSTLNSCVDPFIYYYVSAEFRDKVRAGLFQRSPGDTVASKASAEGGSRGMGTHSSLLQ
T2 sequence (P47871 26-477): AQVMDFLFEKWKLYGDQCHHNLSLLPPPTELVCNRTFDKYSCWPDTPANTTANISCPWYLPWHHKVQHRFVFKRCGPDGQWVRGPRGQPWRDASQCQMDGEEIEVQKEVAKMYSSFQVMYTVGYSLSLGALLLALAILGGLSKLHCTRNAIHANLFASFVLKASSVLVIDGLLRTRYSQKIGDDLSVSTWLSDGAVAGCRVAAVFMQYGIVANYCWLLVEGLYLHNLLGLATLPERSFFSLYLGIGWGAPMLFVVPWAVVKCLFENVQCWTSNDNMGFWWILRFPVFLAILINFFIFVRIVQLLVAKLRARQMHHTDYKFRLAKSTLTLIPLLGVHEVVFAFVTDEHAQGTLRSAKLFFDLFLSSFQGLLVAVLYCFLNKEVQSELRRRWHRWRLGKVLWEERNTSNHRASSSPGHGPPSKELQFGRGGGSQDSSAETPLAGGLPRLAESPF

CCOc1cccc2cc(C(C)NCC3(O)CCCCC3)oc12 (stereo not shown) [O4LE6]
Fold of Basal (320 non-olfactory GPCRs [1]): 0.7744 and 0.8932 and 0.7484 and 0.9767
Fold of Basal (320 non-olfactory GPCRs [2]): 1.104 and 0.7209 and 1.128 and 1.0533
Fold of Basal (320 non-olfactory GPCRs [3]): 0.98 and 0.6043 and 0.591 and 0.7202
Fold of Basal (320 non-olfactory GPCRs [4]): 0.9321 and 1.173 and 0.7369 and 1.152
